# Assay results published in PubChem BioAssay AID1963831 (Molecular Pharmacology Branch, DTP, NCI, 2024).
# Tested on: 889142-216-R-J1-PDC complex spheroid viability
# Assay: Anticancer human tumor 889142-216-R-J1-PDC patient-derived bladder carcinoma cell line growth inhibition [POLQ]
# Details: for IC50: curve of first compound; for viability, T/C: stronger effect = lower value
# Procedure, shortened: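 Three-cell-type spheroids modelling solid tumor plus stroma served as the readout system; POL inhibitors were tested individually and in combination, concentration ranges set by clinical Cmax where known.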
# [1] = second compound 0.0316 µM, first compound 0.00316 µM
# [2] = second compound 0.0316 µM, first compound 0.01 µM
# [3] = second compound 0.0316 µM, first compound 0.0316 µM
# [4] = second compound 0.0316 µM, first compound 0.1 µM
# [5] = second compound 0.0316 µM, first compound 0.316 µM
# [6] = second compound 0.0316 µM, first compound 1 µM
# [7] = second compound 0.1 µM, first compound 0.00316 µM
# [8] = second compound 0.1 µM, first compound 0.01 µM
# [9] = second compound 0.1 µM, first compound 0.0316 µM
# [10] = second compound 0.1 µM, first compound 0.1 µM
# [11] = second compound 0.1 µM, first compound 0.316 µM
# [12] = second compound 0.1 µM, first compound 1 µM
# [13] = second compound 0.316 µM, first compound 0.00316 µM
# [14] = second compound 0.316 µM, first compound 0.01 µM
# [15] = second compound 0.316 µM, first compound 0.0316 µM
# [16] = second compound 0.316 µM, first compound 0.1 µM
# [17] = second compound 0.316 µM, first compound 0.316 µM
# [18] = second compound 0.316 µM, first compound 1 µM
# [19] = second compound 1 µM, first compound 0.00316 µM
# [20] = second compound 1 µM, first compound 0.01 µM
# [21] = second compound 1 µM, first compound 0.0316 µM
# [22] = second compound 1 µM, first compound 0.1 µM
# [23] = second compound 1 µM, first compound 0.316 µM
# [24] = second compound 1 µM, first compound 1 µM
# [25] = second compound 3.16 µM, first compound 0.00316 µM
# [26] = second compound 3.16 µM, first compound 0.01 µM
# [27] = second compound 3.16 µM, first compound 0.0316 µM
# [28] = second compound 3.16 µM, first compound 0.1 µM
# [29] = second compound 3.16 µM, first compound 0.316 µM
# [30] = second compound 3.16 µM, first compound 1 µM
# [31] = second compound 10 µM, first compound 0.00316 µM
# [32] = second compound 10 µM, first compound 0.01 µM
# [33] = second compound 10 µM, first compound 0.0316 µM
# [34] = second compound 10 µM, first compound 0.1 µM
# [35] = second compound 10 µM, first compound 0.316 µM
# [36] = second compound 10 µM, first compound 1 µM
# [37] = second compound 0.0316 µM, first compound 3.16 µM
# [38] = second compound 0.0316 µM, first compound 10 µM
# [39] = second compound 0.1 µM, first compound 3.16 µM
# [40] = second compound 0.1 µM, first compound 10 µM
# [41] = second compound 0.316 µM, first compound 3.16 µM
# [42] = second compound 0.316 µM, first compound 10 µM
# [43] = second compound 1 µM, first compound 3.16 µM
# [44] = second compound 1 µM, first compound 10 µM
# [45] = second compound 3.16 µM, first compound 3.16 µM
# [46] = second compound 3.16 µM, first compound 10 µM
# [47] = second compound 10 µM, first compound 3.16 µM
# [48] = second compound 10 µM, first compound 10 µM
# 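Further: spheroids exposed to compounds for seven days.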
# 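Wherever viability, T/C is given: 100% = DMSO vehicle control viability.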
structure (smiles),measurement,setting,value
CCc1c2c(nc3ccc(O)cc13)-c1cc3c(c(=O)n1C2)COC(=O)[C@]3(O)CC + Cc1cccc(N(C)C(=O)C2C(O)CCN2c2nc(C)cc(C(F)(F)F)c2C#N)c1,IC50,second compound 0.0316 µM,20.6 nM
same,IC50,second compound 0.1 µM,17 nM
same,IC50,second compound 0.316 µM,14 nM
same,IC50,second compound 1 µM,14.5 nM
same,IC50,second compound 3.16 µM,19.4 nM
same,IC50,second compound 10 µM,6.21 nM
same,"viability, T/C",[1],68.8%
same,"viability, T/C",[2],48.8%
same,"viability, T/C",[3],50.4%
same,"viability, T/C",[4],30.2%
same,"viability, T/C",[5],35.8%
same,"viability, T/C",[6],10.7%
same,"viability, T/C",[7],58.9%
same,"viability, T/C",[8],56%
same,"viability, T/C",[9],44.7%
same,"viability, T/C",[10],34%
same,"viability, T/C",[11],28.4%
same,"viability, T/C",[12],10.4%
same,"viability, T/C",[13],58.4%
same,"viability, T/C",[14],57.3%
same,"viability, T/C",[15],37.2%
same,"viability, T/C",[16],35.6%
same,"viability, T/C",[17],27.7%
same,"viability, T/C",[18],8.37%
same,"viability, T/C",[19],64%
same,"viability, T/C",[20],51.3%
same,"viability, T/C",[21],39%
same,"viability, T/C",[22],35.3%
same,"viability, T/C",[23],31.1%
same,"viability, T/C",[24],9.07%
same,"viability, T/C",[25],60.5%
same,"viability, T/C",[26],60.4%
same,"viability, T/C",[27],40.9%
same,"viability, T/C",[28],34%
same,"viability, T/C",[29],30.3%
same,"viability, T/C",[30],5.91%
same,"viability, T/C",[31],52%
same,"viability, T/C",[32],51.9%
same,"viability, T/C",[33],35.9%
same,"viability, T/C",[34],34.7%
same,"viability, T/C",[35],26.1%
same,"viability, T/C",[36],6.24%
CNCc1ccc(-c2[nH]c3cc(F)cc4c3c2CCNC4=O)cc1 + Cc1cccc(N(C)C(=O)C2C(O)CCN2c2nc(C)cc(C(F)(F)F)c2C#N)c1,IC50,second compound 0.0316 µM,> 10000 nM
same,IC50,second compound 0.1 µM,> 10000 nM
same,IC50,second compound 0.316 µM,> 10000 nM
same,IC50,second compound 1 µM,> 10000 nM
same,IC50,second compound 3.16 µM,> 10000 nM
same,IC50,second compound 10 µM,> 10000 nM
same,"viability, T/C",[3],110%
same,"viability, T/C",[4],106%
same,"viability, T/C",[5],83.5%
same,"viability, T/C",[6],92.7%
same,"viability, T/C",[37],101%
same,"viability, T/C",[38],58.3%
same,"viability, T/C",[9],91.9%
same,"viability, T/C",[10],87%
same,"viability, T/C",[11],95.9%
same,"viability, T/C",[12],91.7%
same,"viability, T/C",[39],85.4%
same,"viability, T/C",[40],78.5%
same,"viability, T/C",[15],92.8%
same,"viability, T/C",[16],89.4%
same,"viability, T/C",[17],109%
same,"viability, T/C",[18],110%
same,"viability, T/C",[41],126%
same,"viability, T/C",[42],79.9%
same,"viability, T/C",[21],82.3%
same,"viability, T/C",[22],120%
same,"viability, T/C",[23],104%
same,"viability, T/C",[24],119%
same,"viability, T/C",[43],113%
same,"viability, T/C",[44],70.7%
same,"viability, T/C",[27],102%
same,"viability, T/C",[28],99%
same,"viability, T/C",[29],110%
same,"viability, T/C",[30],89.2%
same,"viability, T/C",[45],96.6%
same,"viability, T/C",[46],63.9%
same,"viability, T/C",[33],73.7%
same,"viability, T/C",[34],81.2%
same,"viability, T/C",[35],88.4%
same,"viability, T/C",[36],94.4%
same,"viability, T/C",[47],78.5%
same,"viability, T/C",[48],57.2%
COc1cccc(OCCCN)c1-c1cc(Nc2cnc(C#N)cn2)n[nH]1 + Cc1cccc(N(C)C(=O)C2C(O)CCN2c2nc(C)cc(C(F)(F)F)c2C#N)c1,IC50,second compound 0.0316 µM,93.9 nM
same,IC50,second compound 0.1 µM,83 nM
same,IC50,second compound 0.316 µM,29.2 nM
same,IC50,second compound 1 µM,35.6 nM
same,IC50,second compound 3.16 µM,143 nM
same,IC50,second compound 10 µM,27.4 nM
same,"viability, T/C",[1],94.4%
same,"viability, T/C",[2],65.8%
same,"viability, T/C",[3],53.7%
same,"viability, T/C",[4],52.1%
same,"viability, T/C",[5],49%
same,"viability, T/C",[6],45%
same,"viability, T/C",[7],93.2%
same,"viability, T/C",[8],95.6%
same,"viability, T/C",[9],59.3%
same,"viability, T/C",[10],52.3%
same,"viability, T/C",[11],49.4%
same,"viability, T/C",[12],42.9%
same,"viability, T/C",[13],118%
same,"viability, T/C",[14],62.3%
same,"viability, T/C",[15],48.2%
same,"viability, T/C",[16],50.6%
same,"viability, T/C",[17],50.5%
same,"viability, T/C",[18],39.7%
same,"viability, T/C",[19],110%
same,"viability, T/C",[20],62%
same,"viability, T/C",[21],50.7%
same,"viability, T/C",[22],51.7%
same,"viability, T/C",[23],56.8%
same,"viability, T/C",[24],38.2%
same,"viability, T/C",[25],81%
same,"viability, T/C",[26],73.6%
same,"viability, T/C",[27],63.8%
same,"viability, T/C",[28],46.2%
same,"viability, T/C",[29],49.8%
same,"viability, T/C",[30],51.8%
same,"viability, T/C",[31],74.8%
same,"viability, T/C",[32],73.5%
same,"viability, T/C",[33],46.6%
same,"viability, T/C",[34],48.8%
same,"viability, T/C",[35],42.7%
same,"viability, T/C",[36],43.9%
O=C(c1cc(Cc2n[nH]c(=O)c3ccccc23)ccc1F)N1CCN(C(=O)C2CC2)CC1 + Cc1cccc(N(C)C(=O)C2C(O)CCN2c2nc(C)cc(C(F)(F)F)c2C#N)c1,IC50,second compound 0.0316 µM,> 10000 nM
same,IC50,second compound 0.1 µM,> 10000 nM
same,IC50,second compound 0.316 µM,> 10000 nM
same,IC50,second compound 1 µM,> 10000 nM
same,IC50,second compound 3.16 µM,> 10000 nM
same,IC50,second compound 10 µM,> 10000 nM
same,"viability, T/C",[3],103%
same,"viability, T/C",[4],99.7%
same,"viability, T/C",[5],108%
same,"viability, T/C",[6],83.3%
same,"viability, T/C",[37],70.1%
same,"viability, T/C",[38],65%
same,"viability, T/C",[9],106%
same,"viability, T/C",[10],116%
same,"viability, T/C",[11],95%
same,"viability, T/C",[12],98.2%
same,"viability, T/C",[39],87.9%
same,"viability, T/C",[40],63.6%
same,"viability, T/C",[15],92.2%
same,"viability, T/C",[16],98.8%
same,"viability, T/C",[17],97.5%
same,"viability, T/C",[18],80.8%
same,"viability, T/C",[41],72%
same,"viability, T/C",[42],64.3%
same,"viability, T/C",[21],105%
same,"viability, T/C",[22],98.5%
same,"viability, T/C",[23],84.7%
same,"viability, T/C",[24],77.3%
same,"viability, T/C",[43],88.5%
same,"viability, T/C",[44],68.5%
same,"viability, T/C",[27],91.3%
same,"viability, T/C",[28],91.7%
same,"viability, T/C",[29],88.8%
same,"viability, T/C",[30],81.5%
same,"viability, T/C",[45],73.7%
same,"viability, T/C",[46],52.9%
same,"viability, T/C",[33],81.8%
same,"viability, T/C",[34],81.3%
same,"viability, T/C",[35],68.7%
same,"viability, T/C",[36],85.8%
same,"viability, T/C",[47],70.1%
same,"viability, T/C",[48],52.4%
